Assay results: patent publication US8216800B2, “Substrates for detecting peptidase activity and methods using the substrates” (Biomerieux, priority 2007, dated 2012)

Key:
Assay in all cases: Peptidase activity detection on Columbia agar containing substrate
Format in all cases: cell-based
[1] = test system: Bacillus subtilis NCTC 9372; parameters: key: − = no fluorescence detected; e = trace of fluorescence; +/− = weak fluorescence; + = medium fluorescence; ++ = strong fluorescence; NG = No Growth; settings: substrate 100 mg/l, 24 hours at 37° C., UV 360-365 nm
Procedure: (§1) 40 mg of each substrate are dissolved in 4 ml of dimethylformamide (DMF). This solution is completely taken up in 400 ml of Columbia agar autoclaved beforehand and kept molten at 50° C. The final concentration for each substrate is therefore 100 mg/l. Each of the media is distributed into 90 mm Petri dishes in a proportion of 20 ml per dish.
(§2) 18 microorganism strains derived from collections and belonging to various species of bacteria and of yeasts are inoculated onto these media by semi-quantitative isolation of 10 μl of a suspension at 0.5 McFarland diluted to 1/20. The media are incubated for 24 hours at 37° C., and then the colonies formed are examined visually under UV illumination at 360-365 nm.

[2] = test system: Candida albicans ATCC 90028; parameters: key: − = no fluorescence detected; e = trace of fluorescence; +/− = weak fluorescence; + = medium fluorescence; ++ = strong fluorescence; NG = No Growth; settings: substrate 100 mg/l, 24 hours at 37° C., UV 360-365 nm
Procedure: as §1, §2

[3] = test system: Candida glabrata NCPF3943; parameters: key: − = no fluorescence detected; e = trace of fluorescence; +/− = weak fluorescence; + = medium fluorescence; ++ = strong fluorescence; NG = No Growth; settings: substrate 100 mg/l, 24 hours at 37° C., UV 360-365 nm
Procedure: as §1, §2

[4] = test system: Enterobacter cloacae NCTC 11936; parameters: key: − = no fluorescence detected; e = trace of fluorescence; +/− = weak fluorescence; + = medium fluorescence; ++ = strong fluorescence; NG = No Growth; settings: substrate 100 mg/l, 24 hours at 37° C., UV 360-365 nm
Procedure: as §1, §2

[5] = test system: Enterococcus faecalis NCTC 775; parameters: key: − = no fluorescence detected; e = trace of fluorescence; +/− = weak fluorescence; + = medium fluorescence; ++ = strong fluorescence; NG = No Growth; settings: substrate 100 mg/l, 24 hours at 37° C., UV 360-365 nm
Procedure: as §1, §2

[6] = test system: Enterococcus faecium NCTC 11047; parameters: key: − = no fluorescence detected; e = trace of fluorescence; +/− = weak fluorescence; + = medium fluorescence; ++ = strong fluorescence; NG = No Growth; settings: Enterococcus faecium NCTC 11047 (Table 2); substrate 100 mg/l, 24 hours at 37° C., UV 360-365 nm
Procedure: as §1, §2

[7] = test system: Escherichia coli NCTC 10418; parameters: key: − = no fluorescence detected; e = trace of fluorescence; +/− = weak fluorescence; + = medium fluorescence; ++ = strong fluorescence; NG = No Growth; settings: substrate 100 mg/l, 24 hours at 37° C., UV 360-365 nm
Procedure: as §1, §2

[8] = test system: Listeria monocytogenes NCTC 11994; parameters: key: − = no fluorescence detected; e = trace of fluorescence; +/− = weak fluorescence; + = medium fluorescence; ++ = strong fluorescence; NG = No Growth; settings: substrate 100 mg/l, 24 hours at 37° C., UV 360-365 nm
Procedure: as §1, §2

[9] = test system: Providencia rettgeri NCTC 7475; parameters: key: − = no fluorescence detected; e = trace of fluorescence; +/− = weak fluorescence; + = medium fluorescence; ++ = strong fluorescence; NG = No Growth; settings: substrate 100 mg/l, 24 hours at 37° C., UV 360-365 nm
Procedure: as §1, §2

[10] = test system: Salmonella Typhimurium NCTC 74; parameters: key: − = no fluorescence detected; e = trace of fluorescence; +/− = weak fluorescence; + = medium fluorescence; ++ = strong fluorescence; NG = No Growth; settings: substrate 100 mg/l, 24 hours at 37° C., UV 360-365 nm
Procedure: as §1, §2

[11] = test system: Serratia marcescens NCTC 10211; parameters: key: − = no fluorescence detected; e = trace of fluorescence; +/− = weak fluorescence; + = medium fluorescence; ++ = strong fluorescence; NG = No Growth; settings: substrate 100 mg/l, 24 hours at 37° C., UV 360-365 nm
Procedure: as §1, §2

[12] = test system: Staphylococcus aureus NCTC 11939; parameters: key: − = no fluorescence detected; e = trace of fluorescence; +/− = weak fluorescence; + = medium fluorescence; ++ = strong fluorescence; NG = No Growth; settings: Staphylococcus aureus (MRSA) NCTC 11939; substrate 100 mg/l, 24 hours at 37° C., UV 360-365 nm
Procedure: as §1, §2

[13] = test system: Staphylococcus aureus NCTC 6571; parameters: key: − = no fluorescence detected; e = trace of fluorescence; +/− = weak fluorescence; + = medium fluorescence; ++ = strong fluorescence; NG = No Growth; settings: substrate 100 mg/l, 24 hours at 37° C., UV 360-365 nm
Procedure: as §1, §2

[14] = test system: Staphylococcus epidermidis NCTC 11047; parameters: key: − = no fluorescence detected; e = trace of fluorescence; +/− = weak fluorescence; + = medium fluorescence; ++ = strong fluorescence; NG = No Growth; settings: substrate 100 mg/l, 24 hours at 37° C., UV 360-365 nm
Procedure: as §1, §2

[15] = test system: Streptococcus pyogenes NCTC 8306; parameters: key: − = no fluorescence detected; e = trace of fluorescence; +/− = weak fluorescence; + = medium fluorescence; ++ = strong fluorescence; NG = No Growth; settings: substrate 100 mg/l, 24 hours at 37° C., UV 360-365 nm
Procedure: as §1, §2

[16] = test system: Yersinia enterocolitica NCTC 11176; parameters: key: − = no fluorescence detected; e = trace of fluorescence; +/− = weak fluorescence; + = medium fluorescence; ++ = strong fluorescence; NG = No Growth; settings: substrate 100 mg/l, 24 hours at 37° C., UV 360-365 nm
Procedure: as §1, §2

[17] = test system: Burkholderia cepacia 1222; parameters: key to fluorescence intensity: − = no fluorescence detected; e = trace of fluorescence; +/− = weak fluorescence; + = medium fluorescence; ++ = strong fluorescence; NG = No Growth; settings: for fluorescence intensity: Burkholderia cepacia 1222, substrate 100 mg/l, 24 hours at 37° C., UV 360-365 nm; for fluorescence produced: B. cepacia strain
Procedure: as §1, §2

[18] = test system: Pseudomonas aeruginosa NCTC 10662; parameters: key to fluorescence intensity: − = no fluorescence detected; e = trace of fluorescence; +/− = weak fluorescence; + = medium fluorescence; ++ = strong fluorescence; NG = No Growth; settings: for fluorescence intensity: Pseudomonas aeruginosa NCTC 10662, substrate 100 mg/l, 24 hours at 37° C., UV 360-365 nm
Procedure: as §1, §2

fluorescence intensity [1] | fluorescence intensity [4] | fluorescence intensity [5] | fluorescence intensity [6] | fluorescence intensity [8] | fluorescence intensity [10] | fluorescence intensity [11] | fluorescence intensity [15] | fluorescence intensity [17] | fluorescence intensity [18] | fluorescence produced [17] | fluorescence produced ([18]; Pseudomonas aeruginosa strain) | Structure (SMILES) | fluorescence intensity [2] | fluorescence intensity [3] | fluorescence intensity [7] | fluorescence intensity [9] | fluorescence intensity [12] | fluorescence intensity [13] | fluorescence intensity [14] | fluorescence intensity [16]
− | + | +/− | +/− | +/− | + | + | − | + | +/− |  |  | COc1cc(NC(=O)CCN)c(-c2nc3ccccc3o2)cc1OC [Substrate 11] | − | − | + | + | − | + | − | +/−
+/− | ++ | − | NG | +/− | − | ++ | NG | + | +/− | medium blue fluorescence |  | NCC(=O)Nc1ccccc1-c1nc2ccccc2o1 [Substrate 3] | NG | NG | ++ | ++ | + | + | NG | +/−
− | + | − | − | − | +/− | − | NG | − | − |  | negative | C[C@H](N)C(=O)Nc1ccc(Cl)cc1-c1nc2ccccc2s1 [Substrate 19] | NG | NG | + | + | − | − | NG | 
NG | + | +/− | +/− | ε | − | + | NG | + | + | green fluorescence |  | NCCC(=O)Nc1ccccc1-c1nc2ccccc2o1 [Substrate 2] | − | − | + | +/− | − | − | − | +/−
NG | NG | NG | NG | NG | NG | ++ | NG | NG | ++ |  |  | NCCC(=O)Nc1ccccc1-c1nc2ccccc2s1 [Substrate 18] | NG | NG | ++ | NG | NG | NG | NG | NG
